From patent publication US9598433B2, “Hepatitis C virus inhibitors” (BRISTOL-MYERS SQUIBB COMPANY, priority 2012, dated 2017)
pEC50: −log10 of the molar value. Like-named read-outs stand apart in the source and are kept apart here.

Tests used:
[1] = system: HCV genotype 1b (Con1) replicon in HUH-7 cells; assay: HCV replicon luciferase reporter assay, genotype 1b; format: cell-based; conditions: Hepatitis C virus, 72 h, genotype 1b replicon, 3 days incubation
Source text: (§1) An HCV replicon whole cell system was established as described by Lohmann V, Korner F, Koch J, Herian U, Theilmann L, Bartenschlager R., Science 285(5424):110-3 (1999) and modified to introduce a luciferase reporter, as first described by Krieger et al (Krieger N, Lohmann V, and Bartenschlager R, J. Virol. 75(10):4614-4624 (2001)). CDNA encoding a humanized form of the Renilla luciferase gene and a linker sequence fused directly to the 3′-end of the luciferase gene were introduced into the replicon construct using an Ascl restriction site located in core, directly upstream of the neomycin marker gene. The adaptive mutation at position 1179 (serine to isoleucine) was also introduced (Blight K J, Kolykhalov, A A, Rice, C M, Science 290(5498):1972-1974). A stable cell line constitutively expressing this HCV replicon construct was generated by first linearizing plasmid DNAs with ScaI. RNA transcripts were synthesized in vitro using the T7 MegaScript transcription kit (Ambion, Austin, Tex.) according to manufacturer's directions. In vitro transcripts of the cDNA were transfected into the human hepatoma cell line, HUH-7. […] Resulting cell lines were characterized for positive and negative strand RNA production and protein production over time.
(§2) HCV replicon luciferase assays were developed to monitor the inhibitory effects of compounds described in the disclosure on HCV genotypes 1a and 1b viral replication. HUH-7 cells, constitutively expressing the HCV replicon, were grown in Dulbecco's Modified Eagle Media (DMEM) (Gibco-BRL) containing 10% Fetal calf serum (FCS) (Sigma) and 1 mg/mL G418 (Gibco-BRL). Compounds were serially diluted 3 folds in DMSO for a twenty-point titration and subsequently transferred to sterile 384-well tissue-culture treated plates (Corning cat #3571). The plates were then seeded with 50 μL of cells at a density of 3.0×10^3 cells/well in DMEM containing 4% FCS (final DMSO concentration at 0.5%). After 3 days incubation at 37° C., cells were analyzed for Renilla Luciferase activity using the EnduRen as substrate (Promega cat #E6485). The EnduRen substrate was diluted in DMEM and then added to the plates to a final concentration of 7.5 μM. The plates were incubated for 2 hrs at 37° C. and then read immediately for 30 seconds with Viewlux Imager (PerkinElmer) using a luminescence program. To assess cytotoxicity of compounds, CC50 values were generated by multiplexing the EnduRen-containing plates with Cell Titer-Blue (Promega, cat # G8082). Cell-Titer Blue (3 μL) was added to each well and incubated for 8 hrs at 37° C. The fluorescence signal from each well was read, with an excitation wavelength at 525/10 nm and an emission wavelength of 598/10 nm, using the Viewlux Imager.
(§3) The EC50 values for compounds were calculated by using a four-parameter logistic equation: y=A+((B−A)/(1+((C/x)^D))), where A and B denotes minimal and maximal % inhibition, respectively, C is the EC50, D is the hill slope and x represents compound concentration.

[2] = system: HCV genotype 1a (H77 strain) replicon in HUH-7 cells; assay: HCV replicon luciferase reporter assay, genotype 1a; format: cell-based; conditions: Hepatitis C virus, 72 h, genotype 1a replicon, 3 days incubation
Source text: as §1
A stable HCV replicon luciferase reporter cell line representing the genotype 1a H77 strain (Yanagi M, Purcell R H, Emerson S U, et al. Transcripts from a single full-length cDNA clone of hepatitis C virus are infectious when directly transfected into the liver of a chimpanzee. Proc Natl Acad Sci USA 1997; 94(16):8738-8743) was generated as described previously for the genotype 1b(Con1) replicon luciferase cell line. The replicon construct was modified by introducing mutations were introduced into the genes encoding the NS3 helicase domain (proline replaced by leucine at position 1496) and NS5A (serine to isoleucine at position 2204) to improve replication in cell culture.
as §2, §3

`COc1cc2ccnc(O[C@@H]3C[C@H]4C(=O)N[C@]5(C(=O)NS(=O)(=O)C6(C)CC6)C[C@H]5/C=C\CC[C@@H](C)O[C@@H](C)[C@H](NC(=O)OC(C)(C)C(F)(F)F)C(=O)N4C3)c2cc1F` [Compound 2005, 1,1,1-trifluoro-2-methylpropan-2-yl ((2R,6S,7S,9R,13aS,14aR,16aS,Z)-2-((7-fluoro-6-methoxyisoquinolin-1-yl)oxy)-7,9-dimethyl-14a-(((1-methylcyclopropyl)sulfonyl)carbamoyl)-5,16-dioxo-2,3,5,6,7,9,10,11,13a,14,14a,15,16,16a-tetradecahydro-1H-cyclopropa[i]pyrrolo[1,2-e][1,5,8]oxadiazacyclopentadecin-6-yl)carbamate] gave a pEC50 ([1]; read-out: LE_1b (EC50, range)) of 9.30 to 10.00 and a pEC50 ([2]; read-out: LE_1a (EC50, range)) of 8.30 to 9.00.
With `COc1cc2ccnc(O[C@@H]3C[C@H]4C(=O)N[C@]5(C(=O)NS(=O)(=O)C6(C)CC6)C[C@H]5/C=C\CC[C@@H](C)O[C@@H](C)[C@H](NC(=O)OC(C)(C)C(C)(F)F)C(=O)N4C3)c2cc1F` [Compound 2006, 3,3-difluoro-2-methylbutan-2-yl ((2R,6S,7S,9R,13aS,14aR,16aS,Z)-2-((7-fluoro-6-methoxyisoquinolin-1-yl)oxy)-7,9-dimethyl-14a-(((1-methylcyclopropyl)sulfonyl)carbamoyl)-5,16-dioxo-2,3,5,6,7,9,10,11,13a,14,14a,15,16,16a-tetradecahydro-1H-cyclopropa[i]pyrrolo[1,2-e][1,5,8]oxadiazacyclopentadecin-6-yl)carbamate] the pEC50 ([1]; read-out: LE_1b (EC50, range)) was 9.30 to 10.00 and the pEC50 ([2]; read-out: LE_1a (EC50, range)) was 8.30 to 9.00.
`COc1cnc(O[C@@H]2C[C@H]3C(=O)N[C@]4(C(=O)NS(=O)(=O)C5(C)CC5)C[C@H]4/C=C\CC[C@@H](C)O[C@@H](C)[C@H](NC(=O)OC(C)(C)C(F)(F)F)C(=O)N3C2)c2cc(F)ccc12` [Compound 2007, 1,1,1-trifluoro-2-methylpropan-2-yl ((2R,6S,7S,9R,13aS,14aR,16aS,Z)-2-((7-fluoro-4-methoxyisoquinolin-1-yl)oxy)-7,9-dimethyl-14a-(((1-methylcyclopropyl)sulfonyl)carbamoyl)-5,16-dioxo-2,3,5,6,7,9,10,11,13a,14,14a,15,16,16a-tetradecahydro-1H-cyclopropa[i]pyrrolo[1,2-e][1,5,8]oxadiazacyclopentadecin-6-yl)carbamate] showed a pEC50 ([1]; read-out: LE_1b (EC50)) of 9.62, a pEC50 ([1]; read-out: LE_1b (EC50, range)) of 9.30 to 10.00 and a pEC50 ([2]; read-out: LE_1a (EC50)) of 9.20. For the same compound, the pEC50 ([2]; read-out: LE_1a (EC50, range)) was 9.00 to 9.29.
In the case of `COc1cnc(O[C@@H]2C[C@H]3C(=O)N[C@]4(C(=O)NS(=O)(=O)C5(C)CC5)C[C@H]4/C=C\CC[C@@H](C)O[C@@H](C)[C@H](NC(=O)OC(C)(C)C(C)(F)F)C(=O)N3C2)c2cc(F)ccc12` [Compound 2008, 3,3-difluoro-2-methylbutan-2-yl ((2R,6S,7S,9R,13aS,14aR,16aS,Z)-2-((7-fluoro-4-methoxyisoquinolin-1-yl)oxy)-7,9-dimethyl-14a-(((1-methylcyclopropyl)sulfonyl)carbamoyl)-5,16-dioxo-2,3,5,6,7,9,10,11,13a,14,14a,15,16,16a-tetradecahydro-1H-cyclopropa[i]pyrrolo[1,2-e][1,5,8]oxadiazacyclopentadecin-6-yl)carbamate], the pEC50 ([1]; read-out: LE_1b (EC50, range)) was 9.30 to 10.00 and the pEC50 ([2]; read-out: LE_1a (EC50, range)) was 9.00 to 9.29.
`C[C@@H]1CC/C=C\[C@@H]2C[C@@]2(C(=O)NS(=O)(=O)C2(C)CC2)NC(=O)[C@@H]2C[C@@H](Oc3nccc4c5c(ccc34)OCCO5)CN2C(=O)[C@@H](NC(=O)OC(C)(C)C(F)(F)F)[C@H](C)O1` [Compound 2009, 1,1,1-trifluoro-2-methylpropan-2-yl ((2R,6S,7S,9R,13aS,14aR,16aS,Z)-2-((2,3-dihydro-[1,4]dioxino[2,3-f]isoquinolin-7-yl)oxy)-7,9-dimethyl-14a-(((1-methylcyclopropyl)sulfonyl)carbamoyl)-5,16-dioxo-2,3,5,6,7,9,10,11,13a,14,14a,15,16,16a-tetradecahydro-1H-cyclopropa[i]pyrrolo[1,2-e][1,5,8]oxadiazacyclopentadecin-6-yl)carbamate] gave a pEC50 ([1]; read-out: LE_1b (EC50, range)) of 9.00 to 9.29 and a pEC50 ([2]; read-out: LE_1a (EC50, range)) of 8.30 to 9.00.
`C[C@@H]1CC/C=C\[C@@H]2C[C@@]2(C(=O)NS(=O)(=O)C2(C)CC2)NC(=O)[C@@H]2C[C@@H](Oc3nccc4c5c(ccc34)OCCO5)CN2C(=O)[C@@H](NC(=O)OC(C)(C)C(C)(F)F)[C@H](C)O1` [Compound 2010, 3,3-difluoro-2-methylbutan-2-yl ((2R,6S,7S,9R,13aS,14aR,16aS,Z)-2-((2,3-dihydro[1,4]dioxino[2,3-f]isoquinolin-7-yl)oxy)-7,9-dimethyl-14a-(((1-methylcyclopropyl)sulfonyl)carbamoyl)-5,16-dioxo-2,3,5,6,7,9,10,11,13a,14,14a,15,16,16a-tetradecahydro-1H-cyclopropa[i]pyrrolo[1,2-e][1,5,8]oxadiazacyclopentadecin-6-yl)carbamate] showed a pEC50 ([1]; read-out: LE_1b (EC50, range)) of 9.00 to 9.29 and a pEC50 ([2]; read-out: LE_1a (EC50, range)) of 8.30 to 9.00.
Compound `COc1ccc2c(O[C@@H]3C[C@H]4C(=O)N[C@]5(C(=O)NS(=O)(=O)C6(C)CC6)C[C@H]5/C=C\CC[C@@H](C)O[C@@H](C)[C@H](NC(=O)OC(C)(C)C(F)(F)F)C(=O)N4C3)nc(-c3ccc(OC(C)C)cn3)cc2c1` [Compound 2011, 1,1,1-trifluoro-2-methylpropan-2-yl ((2R,6S,7S,9R,13a5,14aR,16aS,Z)-2-((3-(5-isopropoxypyridin-2-yl)-6-methoxyisoquinolin-1-yl)oxy)-7,9-dimethyl-14a-(((1-methylcyclopropyl)sulfonyl)carbamoyl)-5,16-dioxo-2,3,5,6,7,9,10,11,13a,14,14a,15,16,16a-tetradecahydro-1H-cyclopropa[i]pyrrolo[1,2-e][1,5,8]oxadiazacyclopentadecin-6-yl)carbamate] has a pEC50 ([1]; read-out: LE_1b (EC50, range)) of 9.30 to 10.00 and a pEC50 ([2]; read-out: LE_1a (EC50, range)) of 9.00 to 9.29.
Work on `COc1ccc2c(O[C@@H]3C[C@H]4C(=O)N[C@]5(C(=O)NS(=O)(=O)C6(C)CC6)C[C@H]5/C=C\CC[C@@H](C)O[C@@H](C)[C@H](NC(=O)OC(C)(C)C(C)(F)F)C(=O)N4C3)nc(-c3ccc(OC(C)C)cn3)cc2c1` [Compound 2012, 3,3-difluoro-2-methylbutan-2-yl ((2R,6S,7S,9R,13a5,14aR,16aS,Z)-2-((3-(5-isopropoxypyridin-2-yl)-6-methoxyisoquinolin-1-yl)oxy)-7,9-dimethyl-14a-(((1-methylcyclopropyl)sulfonyl)carbamoyl)-5,16-dioxo-2,3,5,6,7,9,10,11,13a,14,14a,15,16,16a-tetradecahydro-1H-cyclopropa[i]pyrrolo[1,2-e][1,5,8]oxadiazacyclopentadecin-6-yl)carbamate] yielded a pEC50 ([1]; read-out: LE_1b (EC50, range)) of 9.30 to 10.00 and a pEC50 ([2]; read-out: LE_1a (EC50, range)) of 9.30 to 10.00.
In the case of `COc1ccc2c(O[C@@H]3C[C@H]4C(=O)N[C@]5(C(=O)NS(=O)(=O)C6(CF)CC6)C[C@H]5/C=C\CC[C@@H](C)O[C@@H](C)[C@H](NC(=O)OC(C)(C)C(F)(F)F)C(=O)N4C3)nccc2c1` [Compound 2013, 1,1,1-trifluoro-2-methylpropan-2-yl ((2R,6S,7S,9R,13a5,14aR,16aS,Z)-14a-(((1-(fluoromethyl)cyclopropyl)sulfonyl)carbamoyl)-2-((6-methoxyisoquinolin-1-yl)oxy)-7,9-dimethyl-5,16-dioxo-2,3,5,6,7,9,10,11,13a,14,14a,15,16,16a-tetradecahydro-1H-cyclopropa[i]pyrrolo[1,2-e][1,5,8]oxadiazacyclopentadecin-6-yl)carbamate], the pEC50 ([1]; read-out: LE_1b (EC50, range)) was 9.00 to 9.29 and the pEC50 ([2]; read-out: LE_1a (EC50, range)) was 8.30 to 9.00.
